# Key:
# CD209 antigen = target: T1, CD209 antigen (Homo sapiens, UniProt Q9NNX6); experiment: Inhibition of DC-SIGN (unknown origin)
# T1 sequence (Q9NNX6 whole entry): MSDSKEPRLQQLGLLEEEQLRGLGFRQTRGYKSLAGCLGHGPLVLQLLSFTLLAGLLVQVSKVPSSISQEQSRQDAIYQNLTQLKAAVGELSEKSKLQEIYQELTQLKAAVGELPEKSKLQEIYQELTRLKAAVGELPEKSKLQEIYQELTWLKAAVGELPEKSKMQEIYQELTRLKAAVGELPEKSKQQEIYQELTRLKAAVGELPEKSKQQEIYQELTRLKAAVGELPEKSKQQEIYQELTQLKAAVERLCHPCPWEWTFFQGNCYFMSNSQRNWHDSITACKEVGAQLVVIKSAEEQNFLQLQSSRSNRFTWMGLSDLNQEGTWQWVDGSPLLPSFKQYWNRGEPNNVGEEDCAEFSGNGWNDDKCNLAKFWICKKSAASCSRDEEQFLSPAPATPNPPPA
# [1] = target: T2, L-selectin (Homo sapiens) (UniProt P14151); experiment: Inhibition of human L-selectin transfected in mouse 300.19 cells assessed as decrease in protein-mediated cell rolling on GlyCAM-1 or PNAd preincubated for 5 mins followed by cell perfusion through laminar flow chamber coated with GlyCAM-1 or PNAd relative to control; type: cell-based
# T2 sequence (whole entry): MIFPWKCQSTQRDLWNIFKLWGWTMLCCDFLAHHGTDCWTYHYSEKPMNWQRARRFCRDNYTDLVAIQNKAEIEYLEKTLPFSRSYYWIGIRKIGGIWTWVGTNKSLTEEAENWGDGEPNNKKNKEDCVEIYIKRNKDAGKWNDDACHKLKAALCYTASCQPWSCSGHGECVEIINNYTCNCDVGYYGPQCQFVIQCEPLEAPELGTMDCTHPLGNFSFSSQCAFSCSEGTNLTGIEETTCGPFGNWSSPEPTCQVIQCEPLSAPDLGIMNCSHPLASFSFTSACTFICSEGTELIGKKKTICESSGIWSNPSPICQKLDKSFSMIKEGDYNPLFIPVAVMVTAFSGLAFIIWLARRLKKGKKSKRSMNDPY
fold change (FC) [1],SMILES,other results
–,CC(=O)N[C@@H]1C(O)O[C@H](CO)[C@@H](O)[C@@H]1O (some centres undefined),Ki (CD209 antigen): 11 mM
–,NC(=O)[C@@H](CCC(=O)O)NC(=O)[C@H]1C[C@@H](O)[C@H](O)[C@H](O)[C@H]1SCCCCSCc1cccc(F)c1,IC50 (CD209 antigen): 3.2 mM
1,CCCO[C@@H]1O[C@H](CO)[C@@H](O[C@@H]2O[C@H](CO)[C@H](O)[C@H](O[C@]3(C(=O)O)C[C@H](O)[C@@H](NC(C)=O)[C@H]([C@H](O)[C@H](O)CO)O3)[C@H]2O)[C@H](O[C@@H]2O[C@@H](C)[C@@H](O)[C@@H](O)[C@@H]2O)[C@@H]1O,–
3,CCCO[C@@H]1O[C@H](COS(=O)(=O)O)[C@@H](O[C@@H]2O[C@H](CO)[C@H](O)[C@H](O[C@]3(C(=O)O)C[C@H](O)[C@@H](NC(C)=O)[C@H]([C@H](O)[C@H](O)CO)O3)[C@H]2O)[C@H](O[C@@H]2O[C@@H](C)[C@@H](O)[C@@H](O)[C@@H]2O)[C@@H]1O,–

# — ChEMBL document CHEMBL4261609, “Chemistry-driven glycoscience” (Bioorg Med Chem, 2018)
